# Assay results reported in PMC2361176, “Inhibitory effects of retinoic acid metabolism blocking agents (RAMBAs) on the growth of human prostate cancer cells and LNCaP prostate tumour xenografts in SCID mice” (British Journal of Cancer, 2006).
# “Also recorded” adds a separate entry of the source.
# Tests used:
# [1] = Tolerability and body weight in the LNCaP xenograft study; assay type: in vivo; conditions: 0.033 mmol kg−1 once daily
# Experimental: (§1) All animal studies were performed according to the guidelines and approval of the Animal Care Committee of the University of Maryland School of Medicine, and were consistent with United Kingdom Coordinating Committee on Cancer Research guidelines for the welfare of animals in experimental neoplasia. The procedure was modified from [Grigoryev et al (1999)]. Briefly, LNCaP cells were trypsinised, counted, and suspended in Matrigel (2 × 10^7 cells ml^−1) (Fisher Scientific International, Inc., Hampton, NH, USA). Male SCID mice of 4–6 weeks of age were obtained from the National Cancer Institute (Frederick, MD, USA). Each mouse was inoculated s.c. with 0.1 ml of the cell suspension at two sites in the flank. The size of the tumours was determined by measuring the tumour volumes using calipers. Tumour volumes were calculated using the formula V=4/3 × π × r1^2 × r2(r1<r2). The tumours were allowed to develop to approximately 100 mm^3 before treatment. […] Tumour volumes were measured twice weekly and weights of animals were taken weekly after the initiation of treatment. The mice were subjected to 6 weeks of treatment. The mice were then killed and the tumours were excised, weighed, and stored at −80°C until analysis. Additionally, the plasma was collected with 50 IU of heparin and stored at −80°C until analysis.
# [2] = test system: LNCaP tumour xenographs; test: In vivo antitumour study, LNCaP human prostate carcinoma xenograft; set-up: species or system male SCID mice; conditions: 0.033 mmol kg−1 once daily; for reduction in tumour growth compared to control: 6 weeks, P<0.05
# Experimental: as §1
# [3] = test system: Bad; test: Western-blot analysis of Bad in LNCaP cells; assay type: cell-based, human; conditions: 5 and 10 μM, P<0.05
# Experimental: (§2) The Western-blot protocol described for cytokeratins 8/18 was followed with some exceptions. Cell lysates (50 μg) were separated on a 15% SDS–PAGE gel. All washing was performed using TBS containing 1% Tween 20 (TBS-T). Blocking was performed using 5% milk in TBS-T. Incubations were performed using rabbit monoclonal IgG antibody to Bad and Bcl-2 (1 : 1000), as well as horseradish peroxidase-linked anti-rabbit IgG antibodies (1 : 2000) (Cell Signaling Technology, Beverly, MA, USA).
# [4] = test system: Bcl-2; test: Western-blot analysis of Bcl-2 in LNCaP cells; assay type: cell-based, human; conditions: data not shown
# Experimental: as §2
# [5] = target: T1, CYP26 (Homo sapiens, UniProt O43174); test: Cellular CYP26 assay: inhibition of ATRA metabolism in intact LNCaP cells; assay type: cell-based; conditions: intact LNCaP cells pretreated with 1 μM ATRA; [11,12-3H]-ATRA substrate; HPLC
# T1 construct: LNCaP cells were incubated with 1 μM ATRA for 24 h to induce the CYP26 enzyme; endogenous in cells; host or cells: LNCaP human prostate cancer cells, pre-treated with 1 μM ATRA
# T1 sequence (O43174 1-497): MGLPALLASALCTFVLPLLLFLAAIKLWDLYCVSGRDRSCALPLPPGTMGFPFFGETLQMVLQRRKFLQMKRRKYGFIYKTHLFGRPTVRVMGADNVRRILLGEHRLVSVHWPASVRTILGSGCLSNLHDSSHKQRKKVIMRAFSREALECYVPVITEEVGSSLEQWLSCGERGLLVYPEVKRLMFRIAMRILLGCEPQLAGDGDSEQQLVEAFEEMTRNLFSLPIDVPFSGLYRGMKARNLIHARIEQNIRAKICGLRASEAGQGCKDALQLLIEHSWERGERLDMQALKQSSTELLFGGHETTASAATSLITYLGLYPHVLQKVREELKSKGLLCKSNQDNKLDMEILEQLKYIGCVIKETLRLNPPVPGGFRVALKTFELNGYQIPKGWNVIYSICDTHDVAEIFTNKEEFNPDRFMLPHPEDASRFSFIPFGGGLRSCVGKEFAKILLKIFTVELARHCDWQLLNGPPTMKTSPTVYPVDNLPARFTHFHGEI
# Experimental: Following ATRA treatment, the LNCaP cells were incubated with 0.1 or 0.8 μM [11,12-^3H]-ATRA (PerkinElmer Life and Analytical Sciences, Inc., Boston, MA, USA) for 5 h. Following the 5 h incubation, the medium was collected and the cells were trypsinised and collected.
# [6] = test system: MCF-7 human breast cancer model; set-up: method as in Patel et al, 2004, 2006; conditions: ref Patel et al, 2004, 2006; cited from earlier work
# [7] = target: T1, CYP26; test: Cellular microsomal CYP26 assay (ATRA metabolism of microsomes prepared from T47D cells); assay type: biochemical
# [8] = test system: T47D cells; set-up: method as in Patel et al, 2004; conditions: cellular assay; ref Patel et al, 2004; read-out: IC50, inhibition of ATRA metabolism in T47D cells; cited from earlier work
IC50 [5] [nM],Structure (SMILES),reduction of body weights compared to control ([1]; data not shown) [%],tumour growth compared to vehicle control (in words) [2],reduction in tumour growth compared to control [2] [%],Bad expression compared with control [3],expression of Bcl-2 [4],antitumour efficacy [6],toxicity to the mice [1],fold higher potency in microsomes compared to the cellular IC50 value ([7]; microsomal vs cellular IC50) [fold],"IC50 ([7]; microsomes, read-out: IC50, inhibition of ATRA metabolism of microsomes prepared from T47D cells previously exposed to ATRA) [nM]",IC50 [8] [nM]
62.5 ± 12.5,CC1=C(/C=C/C(C)=C/C=C/C(C)=C/C(=O)Nc2ccc(O)cc2)C(C)(C)CCC1n1ccnc1 (centres unmarked) [VN/66-1],–,statistically significantly LNCaP tumour growth inhibition,44,–,did not effect,–,–,–,–,–
90 ± 12.5,CC1=C(/C=C/C(C)=C/C=C/C(C)=C\C(=O)Nc2ccc(O)cc2)C(C)(C)CCC1n1ccnc1 (centres unmarked) [VN/69-1],–,statistically significantly LNCaP tumour growth inhibition,47,–,did not effect,–,–,–,–,–

# The remaining lines, values behind:
Structure (SMILES),IC50 [5] [nM],reduction of body weights compared to control ([1]; data not shown) [%],tumour growth compared to vehicle control (in words) [2],reduction in tumour growth compared to control [2] [%],Bad expression compared with control [3],expression of Bcl-2 [4],antitumour efficacy [6],toxicity to the mice [1],fold higher potency in microsomes compared to the cellular IC50 value ([7]; microsomal vs cellular IC50) [fold],"IC50 ([7]; microsomes, read-out: IC50, inhibition of ATRA metabolism of microsomes prepared from T47D cells previously exposed to ATRA) [nM]",IC50 [8] [nM]
"CC1=C(/C=C/C(C)=C/C=C/C(C)=C/C(=O)O)C(C)(C)CCC1 [ATRA, all-trans-retinoic acid, reference compound]",–,~25,statistically significantly LNCaP tumour growth inhibition,75,significant increase,concentration-dependent decrease,–,–,–,–,–
CC1=C(/C=C/C(C)=C/C=C/C(C)=C/C(=O)O)C(C)(C)CCC1n1ccnc1 (centres unmarked) [VN/14-1],6.5 ± 1.5,–,ineffective; also recorded: not significantly different,–,–,concentration-dependent decrease,excellent antitumour efficacy,–,–,–,–
CC1=C(/C=C/C(C)=C/C=C/C(C)=C/C(=O)n2ccnc2)C(C)(C)CCC1n1ccnc1 (centres unmarked) [VN/50-1],90 ± 10,–,–,–,–,did not effect,–,very toxic; also recorded: toxic,~13,7 ± 1.2,10
